The values below come from US4396550A, “Dibenz [b,e] oxepin derivatives” (Kyowa Hakko Kogyo Co., Ltd., priority 1980, dated 1983).

Where only a bound is given, the exact number is not on record here.

One series deals with male dd-strain rats. In words: Acute toxicity test (minimum lethal dose). Type of series: in vivo. Conditions: mortality for 7 days. As to the method: Groups of male dd-strain rats (each group consisting of five rats) weighing 20±1 g were used. The compounds of the present invention were administered orally (po: 0.3 mg/g) or intraperitoneally (ip: 0.1 mg/g). The MLD (minimum lethal dose) was calculated from the mortality for 7 days after the administration to obtain the results given in Table 1.

Series [1] relates to isolated ileum of guinea-pig. Briefly: Test for anticholinergic effects on the isolated ileum of guinea-pig (acetylcholine contraction, in vitro). Further details: species or system guinea-pig (male Hartly-strain). As to conditions: depressing ratio of 80% or more of acetylcholine contraction, compound 3 minutes before; for minimal effective concentration: Cavia porcellus, 0.05 h, read-out: Anticholinergic activity: MED (minimum effective dose). As to the method: (§1) Male Hartly-strain guinea-pigs weighing about 250 g are killed and the abdomen is opened. The part (2-3 cm in length) of the ileum 10 cm away from the caecum to the pylorus is cut off as a preparation. The preparation is suspended with serre-fine in a Magnus bath containing 10 ml of Tyrode's solution at 32±1° C. under an air bubble. The contraction of the ileum is recorded on Kymograph through hebel when 0.1 ml of acetylcholine at a concentration of 10^-3 g/ml is added to the Tyrode's solution.
(§2) On the other hand, 3 minutes after administration of the test compounds, the same procedure as mentioned above is carried out to record the contraction.

Series [2] has as its system isolated ileum of guinea-pig. In words: Test for antihistaminergic effects on the isolated ileum of guinea-pig (histamine contraction, in vitro). As to conditions: depressing ratio of 80% or more of histamine contraction; for minimal effective concentration: Cavia porcellus, 0.05 h, read-out: Antihistaminergic activity: MED. Details: species or system guinea-pig (male Hartly-strain). How it is done:
as §1, §2
In this test, 0.1 ml of histamine at a concentration of 5×10^-3 g/l is used.

Series [3] has as its system blood platelets (platelet-rich plasma). Briefly: Test for the inhibition of platelet aggregation (collagen-induced, platelet-rich plasma). Type of series: cell-based, male white rabbits. Conditions: depressing ratio of 50% of collagen-induced aggregation, compound 3 minutes before; for minimal effective concentration: Oryctolagus cuniculus, Platelet, 0.05 h, read-out: Antiplatelet aggregation activity: MED. As to the method: In this test, 9 vols. of blood are sampled from the caroted artery of male white rabbits weighing 2 to 2.5 kg and placed in a silicon-coated flask containing 1 vol. of 3.8% sodium citrate. The thus obtained blood is centrifuged at 1,000 rpm for 15 minutes to obtain platelet-rich plasma. The aggregation of the blood platelets is observed using an aggregometer, when collagen is added to the platelet-rich plasma to the extent of the final concentration that 50% of platelet aggregation is caused in the presence of 100 γ/ml of aspirin. On the other hand, 3 minutes after administration of the test compounds to the platelet-rich plasma, the same procedure as mentioned above is carried out to observe the aggregation of blood platelet. The test compounds showing a depressing ratio of 50%, compared with the inhibition of aggregation by collagen alone, are concluded to have antiplatelet aggregation activity.

A short description of another series: Antiasthmatic activity. As to conditions: po; for minimal effective dose: read-out: Antiasthmatic activity: MED. Type of series: in vivo.

Take “4-methyl-11-(3-quinuclidinyl)amino-6,11-dihydrodibenz[b,e]oxepin [Compound 56]”: the “Acute toxicity: MLD (minimum lethal dose)” value (“Acute toxicity: MLD” below) in the series on male dd-strain rats (ip) is on record as 100 mg/kg; in the series on male dd-strain rats (po), 200 mg/kg. Further, in series [1], the “Anticholinergic activity: MED (minimum effective dose)” value amounted to 1 µg/mL. Also, the “Antihistaminergic activity: MED” value in series [2] came to 1 µg/mL. Besides, in series [3], the “Antiplatelet aggregation activity: MED” value worked out at 20 µg/mL. For the same compound, in “Antiasthmatic activity”, the “Antiasthmatic activity: MED” value was determined as 100 mg/kg.

Turning to `CCc1ccc2c(c1)C(NCCN(CC)CC)c1ccccc1CO2` (stereo not drawn) [Compound 1, 2-ethyl-11-{2-(diethylamino)ethyl}amino-6,11-dihydrodibenz[b,e]oxepin], the figures for the “Acute toxicity: MLD” value with male dd-strain rats (ip) and with male dd-strain rats (po) were above 100 mg/kg and above 300 mg/kg, respectively. The figures for the minimal effective concentration in series [1], in series [2] and in series [3] were 1 µg/mL, 1 µg/mL and 20 µg/mL, respectively. Further, in “Antiasthmatic activity”, the minimal effective dose came to 50 mg/kg.

`CCN(CC)CCNC1c2ccccc2COc2ccc(C)cc21` (stereo not drawn) [Compound 8, 2-methyl-11-{2-(diethylamino)ethyl}amino-6,11-dihydrodibenz[b,e]oxepin]: the “Acute toxicity: MLD” value in the series with male dd-strain rats (ip) is above 100 mg/kg; with male dd-strain rats (po), 200 mg/kg. In addition, the values for the minimal effective concentration in series [1], in series [2] and in series [3] were 10 µg/mL, 1 µg/mL and 20 µg/mL, respectively. Also, the minimal effective dose in “Antiasthmatic activity” came out at 25 mg/kg.

Turning to `CCN(CC)CCNC1c2ccccc2COc2ccc(F)cc21` (stereo not drawn) [Compound 9, 2-fluoro-11-{2-(diethylamino)ethyl}amino-6,11-dihydrodibenz[b,e]oxepin], the “Acute toxicity: MLD” value in the series on male dd-strain rats (ip) is reported as 100 mg/kg; in the series with male dd-strain rats (po) it was above 300 mg/kg. Moreover, the minimal effective concentration is 3 µg/mL in series [1], 1 µg/mL in series [2] and 50 µg/mL in series [3]. For the same compound, in the series “Antiasthmatic activity”, the minimal effective dose came to 50 mg/kg.

For `CCN(CC)CCNC1c2ccccc2COc2ccc(Cl)cc21` (stereo not drawn) [Compound 10, 2-chloro-11-{2-(diethylamino)ethyl}amino-6,11-dihydrodibenz[b,e]oxepin], the “Acute toxicity: MLD” value is reported as above 100 mg/kg in the series with male dd-strain rats (ip) and above 300 mg/kg in the series on male dd-strain rats (po). Also, in series [3], the minimal effective concentration is 2 µg/mL. Further, the minimal effective dose in “Antiasthmatic activity” was determined as 100 mg/kg.

Take `CCC(C)c1ccc2c(c1)C(NCCN(CC)CC)c1ccccc1CO2` (stereo not drawn) [Compound 11, 2-(1-methyl) propyl-11-{2-(diethylamino)ethyl}amino-6,11-dihydrodibenz[b,e]oxepin]: the “Acute toxicity: MLD” value in the series with male dd-strain rats (ip) is given as 100 mg/kg; in the series on male dd-strain rats (po), above 300 mg/kg. Moreover, the minimal effective concentration worked out at 0.03 µg/mL in series [1], 0.3 µg/mL in series [2] and 10 µg/mL in series [3]. Besides, in “Antiasthmatic activity”, the minimal effective dose came out at 100 mg/kg.

Take `CCN(CC)CCNC1c2ccccc2COc2ccc(OC)cc21` (stereo not drawn) [Compound 13, 2-methoxy-11-{2-(diethylamino)ethyl}amino-6,11-dihydrodibenz[b,e]oxepin]: the “Acute toxicity: MLD” value in the series on male dd-strain rats (ip) was above 100 mg/kg; with male dd-strain rats (po), above 300 mg/kg. Moreover, the minimal effective concentration in series [1] was 1 µg/mL; in series [2] it was 0.3 µg/mL; in series [3], 20 µg/mL. In the series “Antiasthmatic activity”, the minimal effective dose came out at 100 mg/kg.

With `Cc1ccc2c(c1)C(NCCCN(C)C)c1ccccc1CO2` (stereo not drawn) [Compound 14, 2-methyl-11-{3-(dimethylamino)propyl}amino-6,11-dihydrodibenz[b,e]oxepin], the “Acute toxicity: MLD” value in the series with male dd-strain rats (ip) is on record as above 100 mg/kg; in the series on male dd-strain rats (po), above 300 mg/kg. The minimal effective concentration in series [1] worked out at 10 µg/mL; in series [2], 10 µg/mL; in series [3], 20 µg/mL. In “Antiasthmatic activity”, the minimal effective dose is 100 mg/kg.

For the compound `Cc1ccc2c(c1)C(NCCN(C)C)c1ccccc1CO2` (stereo not drawn) [Compound 16, 2-methyl-11-{2-(dimethylamino)ethyl}amino-6,11-dihydrodibenz[b,e]oxepin], the results for the “Acute toxicity: MLD” value in the series with male dd-strain rats (ip) and in the series on male dd-strain rats (po) were above 100 mg/kg and 300 mg/kg, respectively. The minimal effective concentration in series [1] was 3 µg/mL; in series [2], 10 µg/mL; in series [3], 50 µg/mL. The minimal effective dose in “Antiasthmatic activity” was determined as 25 mg/kg.

With `CCc1ccc2c(c1)C(NCCN(C)C)c1ccccc1CO2` (stereo not drawn) [Compound 17, 2-ethyl-11-{2-(dimethylamino)ethyl}amino-6,11-dihydrodibenz[b,e]oxepin], the “Acute toxicity: MLD” value in the series with male dd-strain rats (ip) is recorded as above 100 mg/kg; in the series with male dd-strain rats (po) it was 300 mg/kg. In addition, the minimal effective concentration was 0.01 µg/mL in series [1], 0.3 µg/mL in series [2] and 50 µg/mL in series [3]. Moreover, in “Antiasthmatic activity”, the minimal effective dose is 10 mg/kg.

For the compound `CN(C)CCNC1c2ccccc2COc2ccc(F)cc21` (stereo not drawn) [Compound 18, 2-fluoro-11-{2-(dimethylamino)ethyl}amino-6,11-dihydrodibenz[b,e]oxepin], the “Acute toxicity: MLD” value is above 100 mg/kg in the series with male dd-strain rats (ip) and above 300 mg/kg with male dd-strain rats (po). In addition, the minimal effective concentration was 0.3 µg/mL in series [1], 0.3 µg/mL in series [2] and 50 µg/mL in series [3]. Besides, the minimal effective dose in “Antiasthmatic activity” came to 10 mg/kg.

Turning to `CN(C)CCNC1c2ccccc2COc2ccc(Cl)cc21` (stereo not drawn) [Compound 19, 2-chloro-11-{2-(dimethylamino)ethyl}amino-6,11-dihydrodibenz[b,e]oxepin], the results for the “Acute toxicity: MLD” value in the series with male dd-strain rats (ip) and in the series with male dd-strain rats (po) were above 100 mg/kg and above 300 mg/kg, respectively. Besides, the results for the minimal effective concentration in series [1], in series [2] and in series [3] were 3 µg/mL, 1 µg/mL and 50 µg/mL, respectively. In addition, the minimal effective dose in the series “Antiasthmatic activity” stood at 25 mg/kg.

Consider `Cc1ccc2c(c1)C(NC1CN3CCC1CC3)c1ccccc1CO2` (stereo not drawn) [Compound 20, 2-methyl-11-(3-quinuclidinyl)amino-6,11-dihydrodibenz[b,e]oxepin], for which the “Acute toxicity: MLD” value is listed as 50 mg/kg in the series with male dd-strain rats (ip) and 300 mg/kg with male dd-strain rats (po). In addition, the minimal effective concentration in series [1] was 1 µg/mL; in series [2], 0.1 µg/mL; in series [3], 100 µg/mL. Besides, in “Antiasthmatic activity”, the minimal effective dose came out at 50 mg/kg.

`OCCN1CCN(C2c3ccccc3COc3ccc(Cl)cc32)CC1` (stereo not drawn) [Compound 40, 2-chloro-11-{4-(2-hydroxyethyl)-1-piperazinyl}-6,11-dihydrodibenz[b,e]oxepin]: the “Acute toxicity: MLD” value with male dd-strain rats (ip) is on record as above 100 mg/kg; with male dd-strain rats (po), above 300 mg/kg. For the same compound, the minimal effective concentration in series [2] was 3 µg/mL; in series [3] it was 100 µg/mL. Also, the minimal effective dose in “Antiasthmatic activity” was found to be 50 mg/kg.

For the compound `CCC(C)(C)c1ccc2c(c1)C(NC1CN3CCC1CC3)c1ccccc1CO2` (stereo not drawn) [Compound 53, 2-(1,1-dimethyl)propyl-11-(3-quinuclidinyl)amino-6,11-dihydrodibenz[b,e]oxepin], the “Acute toxicity: MLD” value in the series with male dd-strain rats (ip) is 50 mg/kg; with male dd-strain rats (po), above 300 mg/kg. Moreover, the minimal effective concentration in series [1] was found to be 10 µg/mL; in series [2], 1 µg/mL. Also, the minimal effective dose in “Antiasthmatic activity” amounted to 50 mg/kg.

In the case of `Cc1ccc2c(c1)C(NCCN1CCOCC1)c1ccccc1CO2` (stereo not drawn) [Compound 59, 2-methyl-11-(2-morpholinoethyl)amino-6,11-dihydrodibenz[b,e]oxepin], the “Acute toxicity: MLD” value in the series on male dd-strain rats (ip) is listed as above 100 mg/kg; in the series on male dd-strain rats (po) it was 200 mg/kg. Moreover, the minimal effective concentration in series [2] was found to be 10 µg/mL; in series [3] it was 100 µg/mL. Moreover, the minimal effective dose in “Antiasthmatic activity” worked out at 100 mg/kg.

As for `CCc1ccc2c(c1)C(NC1CC(C)(C)NC(C)(C)C1)c1ccccc1CO2` (stereo not drawn) [Compound 63, 2-ethyl-11-{4-(2,2,6,6-tetramethyl)piperidinyl}amino-6,11-dihydrodibenz[b,e]oxepin], the “Acute toxicity: MLD” value in the series on male dd-strain rats (ip) is given as 100 mg/kg; in the series with male dd-strain rats (po), 200 mg/kg. For the same compound, the minimal effective concentration in series [1] worked out at 3 µg/mL; in series [2] it was 3 µg/mL; in series [3] it was 10 µg/mL.
